# Columns and labels:
# [1] = system: human ASCs; assay: Osteogenic differentiation of ASCs modulated by E2 (Example 2); format: cell-based
# Protocol: (§1) Because estrogen receptors (ERs) exist in adipose tissues (Dieudonne et al. (2004) Am J Physiol Cell Physiol. 286:C655-661), it is hypothesized that estrogen can also modulate the differentiation potentials of ASCs. All the experiments using human ASCs were performed under an approved IRB protocol of the University of Illinois at Chicago. Human abdomen subcutaneous adipose tissue was obtained from a healthy person with lipo-aspirated surgery. ASCs were isolated from adipose tissue according to previous studies (Hong et al. (2006) Cells Tissues Organs. 183 (3):133-40). Briefly, adipose tissue was finely minced and then digested with 0.075 wt % collagenase type I (Sigma, St Louis, Mo.) at 37° C. for 45 min with intermittent shaking. The cells were collected by filtration with a cell strainer with pore size of 100 μm diameter (Fisher Scientific, Barrington, Ill.). The harvested cells were cultured in a Dulbecco's Modified Eagle's Medium (DMEM), 15% fetal bovine serum (FBS) and 1% antibiotic-antimycotic at 10^6 cells/100 mm dish. Upon reaching 80-90% confluence, the isolated cells were trypsinized, counted, and subcultured at a density of 10^5 cells/100 mm dish as passage-1. The cells used for study are passage-3.
# The basic medium supplemented with 100 nM dexamethasone, 10 mM β-glycerophosphate, and 0.05 mM ascorbic acid-2-phosphate was used to differentiate ASCs into an osteogenic cell lineage. Human ASCs were seeded at a cell density of 10^4 cells/cm^2 on 12-well plates and 100 mm petri dishes. Upon reaching 70% confluence, counting as day-0, the cells were exposed to osteogenic differentiation medium supplemented with different concentrations of E2 (from 10^−8 to 10^−11 M). On day 7, the cells cultured on petri dishes were collected for assessment of gene expressions of osteogenic specific markers and estrogen receptors (ERs) by reverse transcriptase polymerase chain reaction (RT-PCR) analysis. On day 14, the cells cultured in 12-well plates were analyzed for DNA, extracellular matrix, alkaline phosphatase (ALP) activity and calcium content.
# (§2) On the defined day, cells cultured in 12-well plates were washed twice with phosphate buffered solution (PBS), suspended and lysed in 1% Triton-X100 solution (Sigma, St. Louis, Mo.). The collected cells were subsequently homogenized using sonication (Dismembrator Model 100, Fisher Scientific, Barrington, Ill.). The DNA content in the cells was determined by a fluorometric assay using a spectrofluorometer and DNA quantification kit (Hoechst 33258, Bio-Rad, Hercules, Calif.). The total protein concentrations of lysates were measured by a simple colorimetric assay based on the Bradford dye-binding procedure (Bio-Rad, Hercules, Calif.). The amount of protein was normalized by the unit of DNA.
# ALP activity was assessed qualitatively by ALP staining. The cultured cells were fixed in 10% paraformaldehyde and incubated with 120 mM Tris buffer, pH 8.4, containing 0.9 mM Naphtol AS-MX Phosphate (Sigma, St. Louis, Mo.) and 1.8 mM Fast Red TR. After 45 min at room temperature, the cultures were washed with deionized water. Mineral deposition in the extracellular matrix was presented by von Kossa staining. The fixed cells were incubated in 2.5% (w/v) silver nitrate (Sigma, St. Louis, Mo.) solution for 30 min in sunlight. In order to quantify ALP activity and calcium content, cultured cells were washed twice with PBS, suspended and lysed in 0.5 ml of 1% Triton-X100 solution. ALP and calcium content were measured by spectrophotometry with a colorimetric kit according to the manufacturer's instructions (Raichem, San Diego, Calif.).
# (§3) Total RNA was extracted from the various differentiated cells using TRizol reagent (Invitrogen, Carlsbad, Calif.). Approximately 5 μg of total RNA was converted to single stranded cDNA using a commercial cDNA synthesis kit (Invitrogen, Carlsbad, Calif.). […]
# [2] = system: human ASCs; assay: Adipogenic differentiation of ASCs modulated by E2 (Example 2); format: cell-based; details: for increase of elution of Oil-O-Red staining: vs differentiation without estrogen, FIG. 7C
# Protocol: as §1
# The basic DMEM medium supplemented with 50 nM of dexamethasone, […] and 5 mM of isobutyl-methylxanthine (IBMX) was used to differentiate ASCs into adipocytes (Hong et al. (2005) Ann Biomed Eng. 33:511-517). At 70% confluence of ASCs in 12-well plates, the basic DMEM medium was exchanged for the adipogenic differentiation medium. The effects of estrogen on adipogenic differentiation were observed after E2 supplements at concentrations ranging from 10^−8 to 10^−11M. On day 4, the cells were collected for analysis of adipogenic and ER gene expressions. On day 7, adipogenic differentiation of ASCs modulated by estrogen was analyzed by Oil-O-Red staining and quantitative measurements. Each treatment group included four samples.
# as §2
# After 7 days of incubation with adipogenic differentiation medium supplemented with different concentrations of E2, cultured cells were fixed in 10% neutral buffered formalin for 15 min and washed with PBS twice. Cells were immersed in a 60% Oil-O-Red solution in PBS (Sigma, St Louis, Mo.) for 60 min. In order to quantify adipogenic potentials, the images of Oil-O-Red stained at each well were randomly taken by a digital camera connected to a computer monitor. The Oil-O-Red positive cells on the screen were double-blindly counted. Five pictures were taken from each well. The cell numbers were normalized to per mm^2. Oil-O-Red dye then was eluted by 500 μl of 100% isopropanol for each well of cultured cells. The spectrophotometric absorbance of the resulting solution was quantified at 510 nm.
# as §3
compound,measurement,setting,value
"C[C@]12CC[C@@H]3c4ccc(O)cc4CC[C@H]3[C@@H]1CC[C@@H]2O [E2, 17-β estradiol]",OCN expression (RT-PCR),"[1]; 7 days, estrogen supplement 10^−8 M",only expressed
same,ERβ expression (RT-PCR),"[1]; 7 days, estrogen supplement 10^−11 M",light bands
same,ALP and cbfa-1 expression (RT-PCR bands),"[1]; 7 days, vs cells grown in the absence of estrogen, FIG. 4",intense bands
same,staining for ALP and von Kossa,"[1]; ASCs, osteogenic medium supplemented with E2",Intense staining
same,ALP activities,"[1]; E2 10^−9 and 10^−8 M, after 14 days, FIG. 5B",significantly improved
same,proliferation during osteogenesis (DNA content),"[1]; day 14, FIG. 5A",does not increase proliferation
same,calcium content (mineralization of the extracellular matrix),"[1]; day 14, most notably at 10^−8 M, FIG. 5D",significantly increased
same,protein content (extracellular matrix synthesis),"[1]; day 14, normalized by DNA, FIG. 5C",increased
same,ERβ expression (RT-PCR),"[2]; 4 days, FIG. 6",undetected
same,ERα expression (RT-PCR),"[2]; 4 days, no ERα band without E2 supplement, FIG. 6",expressed
same,DNA amount,"[2]; 7 days adipogenic media with E2 supplements, FIG. 7A",decreased
same,number of Oil-O-Red positively stained cells,"[2]; 7 days, FIG. 7B",increased
same,population of lipid-containing cells,"[2]; ASCs after E2 supplement, Oil-O-Red staining",increased population
same,increase of elution of Oil-O-Red staining,"[2]; estrogen 10^−8 M, 7 days",33.9%
same,increase of elution of Oil-O-Red staining,"[2]; estrogen 10^−9 M, 7 days",25.5%
same,effects on adipogenesis at low concentrations,[2]; estrogen supplement at low concentrations,hardly observed

# Reference: patent US20080118980A1, “Estrogen Enhancing Differentiation of Human Mesenchymal Stromal Cells and Adipose-derived Stromal Cells” (The Board of Trustees of the University of Illinois,, priority 2006, published 2008)
